Experimental data from patent publication US5486516A, “Furopyrimidine derivatives” (DowElanco, priority 1993, dated 1996).

These molecules were tested on Southern corn rootworm (Diabrotica undecimpuctata howardi Barber) (assay: Mite/insect screen, corn rootworm). Settings: Diabrotica; CRW rate 12.00 ppm, soil; read-out: CRW results (percent mortality).
Format: in vivo
Method in brief: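 Compound in acetone/alcohol with emulsifiers, diluted with water; 1 mL applied to 15 g dry sandy soil holding a presoaked corn seed. After 6–12 h drying, five 2-3 instar larvae added, held at 23° C; percent mortality and phytotoxicity scored after standard exposure periods.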

**Q.** With Cc1oc2ncnc(Sc3ccc(F)cc3)c2c1C [Example 56, 5,6-dimethyl-4-[(4-fluorophenyl)thio]furo[2,3-d]pyrimidine] as the molecule, how does the mortality at 12 ppm read?
**A.** 0%

**Q.** Cc1oc2ncnc(OCC(C)c3ccc(CC(C)C)cc3)c2c1C (stereo not drawn) [Example 67, 4-[2-[4-(2,2-dimethylethyl)phenyl]-2-methylethoxy]5,6-dimethylfuro[2,3-d]pyrimidine] was tested. Which mortality at 12 ppm did it give?
**A.** 0%

**Q.** For Cc1oc2ncnc(NC(C)(C)Cc3ccccc3)c2c1C [Example 77, 5,6-dimethyl-N-[1,1-dimethyl-2-phenylethyl]furo[2,3-d]pyrimidin-4-amine], which mortality at 12 ppm is on record?
**A.** 0%

Same assay, conditions: Diabrotica; CRW rate 24.00 ppm, soil; read-out: CRW results (percent mortality)

**Q.** Which mortality at 24 ppm does the source give for Cc1oc2ncnc(Sc3ccc(F)cc3)c2c1C [Example 56, 5,6-dimethyl-4-[(4-fluorophenyl)thio]furo[2,3-d]pyrimidine] here?
**A.** 0%

**Q.** How did the mortality at 24 ppm turn out when Cc1oc2ncnc(OCC(C)c3ccc(CC(C)C)cc3)c2c1C (stereo not drawn) [Example 67, 4-[2-[4-(2,2-dimethylethyl)phenyl]-2-methylethoxy]5,6-dimethylfuro[2,3-d]pyrimidine] was run?
**A.** 0%

**Q.** Cc1oc2ncnc(NC(C)(C)Cc3ccccc3)c2c1C [Example 77, 5,6-dimethyl-N-[1,1-dimethyl-2-phenylethyl]furo[2,3-d]pyrimidin-4-amine] was tested. Which mortality at 24 ppm did it give?
**A.** 0%

These molecules were tested on southern armyworm (Spodopetra eridania Cramer) (assay: Mite/insect screen, Southern armyworm). Settings: Spodoptera eridania; rate 200 ppm, sprayed leaves; read-out: SAW results (percent mortality).
Format: in vivo
Method in brief: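 Compounds in acetone/alcohol with Toximul emulsifiers, diluted in water, sprayed to runoff on squash leaves at 10 psi and dried 1 h. Excised treated leaves fed to southern armyworm larvae in Petri dishes; percent mortality scored after standard exposure.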

**Q.** Cc1oc2ncnc(Sc3ccc(F)cc3)c2c1C [Example 56, 5,6-dimethyl-4-[(4-fluorophenyl)thio]furo[2,3-d]pyrimidine] was tested. Which mortality at 200 ppm did it give?
**A.** 0%

**Q.** For Cc1oc2ncnc(OCC(C)c3ccc(CC(C)C)cc3)c2c1C (stereo not drawn) [Example 67, 4-[2-[4-(2,2-dimethylethyl)phenyl]-2-methylethoxy]5,6-dimethylfuro[2,3-d]pyrimidine], which mortality at 200 ppm is on record?
**A.** 0%

**Q.** With Cc1oc2ncnc(NC(C)(C)Cc3ccccc3)c2c1C [Example 77, 5,6-dimethyl-N-[1,1-dimethyl-2-phenylethyl]furo[2,3-d]pyrimidin-4-amine] as the molecule, how does the mortality at 200 ppm read?
**A.** 0%

Same assay, conditions: Spodoptera eridania; rate 400 ppm, sprayed leaves; read-out: SAW results (percent mortality)

**Q.** With Cc1oc2ncnc(Sc3ccc(F)cc3)c2c1C [Example 56, 5,6-dimethyl-4-[(4-fluorophenyl)thio]furo[2,3-d]pyrimidine] as the molecule, how does the mortality at 400 ppm read?
**A.** 0%

**Q.** How did the mortality at 400 ppm turn out when Cc1oc2ncnc(OCC(C)c3ccc(CC(C)C)cc3)c2c1C (stereo not drawn) [Example 67, 4-[2-[4-(2,2-dimethylethyl)phenyl]-2-methylethoxy]5,6-dimethylfuro[2,3-d]pyrimidine] was run?
**A.** 0%

**Q.** Cc1oc2ncnc(NC(C)(C)Cc3ccccc3)c2c1C [Example 77, 5,6-dimethyl-N-[1,1-dimethyl-2-phenylethyl]furo[2,3-d]pyrimidin-4-amine] was tested. Which mortality at 400 ppm did it give?
**A.** 0%

These molecules were tested on Pseudoperonospora cubensis (downy mildew) (assay: Plant pathology screen (Test 1), downy mildew on squash). Settings: foliar, read-out: DOWN MDEW control rating.

**Q.** How did the pest or weed control at 400 µg/mL turn out when Cc1oc2ncnc(Sc3ccc(F)cc3)c2c1C [Example 56, 5,6-dimethyl-4-[(4-fluorophenyl)thio]furo[2,3-d]pyrimidine] was run?
**A.** 0 to 19%

**Q.** Which pest or weed control at 400 µg/mL does the source give for Cc1oc2ncnc(OCC(C)c3ccc(CC(C)C)cc3)c2c1C (stereo not drawn) [Example 67, 4-[2-[4-(2,2-dimethylethyl)phenyl]-2-methylethoxy]5,6-dimethylfuro[2,3-d]pyrimidine] here?
**A.** 20 to 89%

**Q.** With Cc1oc2ncnc(NC(C)(C)Cc3ccccc3)c2c1C [Example 77, 5,6-dimethyl-N-[1,1-dimethyl-2-phenylethyl]furo[2,3-d]pyrimidin-4-amine] as the molecule, how does the pest or weed control at 400 µg/mL read?
**A.** 90 to 100%

Each molecule was assayed on melon aphids (Aphis gossvpii Glover) (assay: Mite/insect screen, melon aphids). Settings: Aphis; rate 200 ppm, sprayed leaves; read-out: MA results (percent mortality).
Format: in vivo
Method in brief: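 Aphids established on squash cotyledons were sprayed to runoff with compound in acetone/alcohol with sulfonate/nonionic emulsifiers, diluted in water to test concentrations. Leaves dried 1 h. Percent mortality scored after standard exposure periods.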

**Q.** For Cc1oc2ncnc(Sc3ccc(F)cc3)c2c1C [Example 56, 5,6-dimethyl-4-[(4-fluorophenyl)thio]furo[2,3-d]pyrimidine], which mortality at 200 ppm is on record?
**A.** 0%

**Q.** How did the mortality at 200 ppm turn out when Cc1oc2ncnc(OCC(C)c3ccc(CC(C)C)cc3)c2c1C (stereo not drawn) [Example 67, 4-[2-[4-(2,2-dimethylethyl)phenyl]-2-methylethoxy]5,6-dimethylfuro[2,3-d]pyrimidine] was run?
**A.** 100%

**Q.** Which mortality at 200 ppm does the source give for Cc1oc2ncnc(NC(C)(C)Cc3ccccc3)c2c1C [Example 77, 5,6-dimethyl-N-[1,1-dimethyl-2-phenylethyl]furo[2,3-d]pyrimidin-4-amine] here?
**A.** 100%

Same assay, conditions: Aphis; rate 400 ppm, sprayed leaves; read-out: MA results (percent mortality)

**Q.** How did the mortality at 400 ppm turn out when Cc1oc2ncnc(Sc3ccc(F)cc3)c2c1C [Example 56, 5,6-dimethyl-4-[(4-fluorophenyl)thio]furo[2,3-d]pyrimidine] was run?
**A.** 0%

**Q.** Cc1oc2ncnc(OCC(C)c3ccc(CC(C)C)cc3)c2c1C (stereo not drawn) [Example 67, 4-[2-[4-(2,2-dimethylethyl)phenyl]-2-methylethoxy]5,6-dimethylfuro[2,3-d]pyrimidine] was tested. Which mortality at 400 ppm did it give?
**A.** 100%

**Q.** Which mortality at 400 ppm does the source give for Cc1oc2ncnc(NC(C)(C)Cc3ccccc3)c2c1C [Example 77, 5,6-dimethyl-N-[1,1-dimethyl-2-phenylethyl]furo[2,3-d]pyrimidin-4-amine] here?
**A.** 80%

Each molecule was assayed on Erysiphe graminis tritici (powdery mildew) (assay: Plant pathology screen (Test 1), powdery mildew on wheat). Settings: Blumeria graminis, in Triticum aestivum, foliar, read-out: POWD MDEW control rating.

**Q.** How did the pest or weed control at 400 µg/mL turn out when Cc1oc2ncnc(Sc3ccc(F)cc3)c2c1C [Example 56, 5,6-dimethyl-4-[(4-fluorophenyl)thio]furo[2,3-d]pyrimidine] was run?
**A.** 20 to 89%

**Q.** Cc1oc2ncnc(OCC(C)c3ccc(CC(C)C)cc3)c2c1C (stereo not drawn) [Example 67, 4-[2-[4-(2,2-dimethylethyl)phenyl]-2-methylethoxy]5,6-dimethylfuro[2,3-d]pyrimidine] was tested. Which pest or weed control at 400 µg/mL did it give?
**A.** 20 to 89%

**Q.** For Cc1oc2ncnc(NC(C)(C)Cc3ccccc3)c2c1C [Example 77, 5,6-dimethyl-N-[1,1-dimethyl-2-phenylethyl]furo[2,3-d]pyrimidin-4-amine], which pest or weed control at 400 µg/mL is on record?
**A.** 90 to 100%

These molecules were tested on Pyricularia oryzae (rice blast) (assay: whole plant or invertebrate). Settings: foliar, read-out: RICE BLAST control rating.
Format: in vivo

**Q.** Which pest or weed control at 400 µg/mL does the source give for Cc1oc2ncnc(Sc3ccc(F)cc3)c2c1C [Example 56, 5,6-dimethyl-4-[(4-fluorophenyl)thio]furo[2,3-d]pyrimidine] here?
**A.** 20 to 89%

**Q.** With Cc1oc2ncnc(OCC(C)c3ccc(CC(C)C)cc3)c2c1C (stereo not drawn) [Example 67, 4-[2-[4-(2,2-dimethylethyl)phenyl]-2-methylethoxy]5,6-dimethylfuro[2,3-d]pyrimidine] as the molecule, how does the pest or weed control at 400 µg/mL read?
**A.** 90 to 100%

**Q.** Which pest or weed control at 400 µg/mL does the source give for Cc1oc2ncnc(NC(C)(C)Cc3ccccc3)c2c1C [Example 77, 5,6-dimethyl-N-[1,1-dimethyl-2-phenylethyl]furo[2,3-d]pyrimidin-4-amine] here?
**A.** 90 to 100%

These molecules were tested on Puccinia recondita tritici (leaf rust) (assay: Plant pathology screen (Test 1), leaf rust on wheat). Settings: in Triticum aestivum, foliar, read-out: LEAF RUST control rating.

**Q.** With Cc1oc2ncnc(Sc3ccc(F)cc3)c2c1C [Example 56, 5,6-dimethyl-4-[(4-fluorophenyl)thio]furo[2,3-d]pyrimidine] as the molecule, how does the pest or weed control at 400 µg/mL read?
**A.** 20 to 89%

**Q.** With Cc1oc2ncnc(OCC(C)c3ccc(CC(C)C)cc3)c2c1C (stereo not drawn) [Example 67, 4-[2-[4-(2,2-dimethylethyl)phenyl]-2-methylethoxy]5,6-dimethylfuro[2,3-d]pyrimidine] as the molecule, how does the pest or weed control at 400 µg/mL read?
**A.** 20 to 89%

**Q.** How did the pest or weed control at 400 µg/mL turn out when Cc1oc2ncnc(NC(C)(C)Cc3ccccc3)c2c1C [Example 77, 5,6-dimethyl-N-[1,1-dimethyl-2-phenylethyl]furo[2,3-d]pyrimidin-4-amine] was run?
**A.** 90 to 100%

Each molecule was assayed on Twospotted spider mites (Tetranychus urticae Koch) (assay: Mite/insect screen, twospotted spider mites). Settings: Tetranychus urticae, rate 200 ppm, sprayed leaves; read-out: SM results (percent mortality).
Format: in vivo
Method in brief: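 Squash cotyledons infested with mites were sprayed to runoff at 10 psi with compound in acetone/alcohol plus emulsifiers, diluted in water to the stated concentrations. Percent mortality and phytotoxicity were scored after standard exposure periods.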

**Q.** With Cc1oc2ncnc(Sc3ccc(F)cc3)c2c1C [Example 56, 5,6-dimethyl-4-[(4-fluorophenyl)thio]furo[2,3-d]pyrimidine] as the molecule, how does the mortality at 200 ppm read?
**A.** 0%

**Q.** Which mortality at 200 ppm does the source give for Cc1oc2ncnc(OCC(C)c3ccc(CC(C)C)cc3)c2c1C (stereo not drawn) [Example 67, 4-[2-[4-(2,2-dimethylethyl)phenyl]-2-methylethoxy]5,6-dimethylfuro[2,3-d]pyrimidine] here?
**A.** 100%

**Q.** How did the mortality at 200 ppm turn out when Cc1oc2ncnc(NC(C)(C)Cc3ccccc3)c2c1C [Example 77, 5,6-dimethyl-N-[1,1-dimethyl-2-phenylethyl]furo[2,3-d]pyrimidin-4-amine] was run?
**A.** 50%

Same assay, conditions: Tetranychus urticae, rate 400 ppm, sprayed leaves; read-out: SM results (percent mortality)

**Q.** For Cc1oc2ncnc(Sc3ccc(F)cc3)c2c1C [Example 56, 5,6-dimethyl-4-[(4-fluorophenyl)thio]furo[2,3-d]pyrimidine], which mortality at 400 ppm is on record?
**A.** 0%

**Q.** For Cc1oc2ncnc(OCC(C)c3ccc(CC(C)C)cc3)c2c1C (stereo not drawn) [Example 67, 4-[2-[4-(2,2-dimethylethyl)phenyl]-2-methylethoxy]5,6-dimethylfuro[2,3-d]pyrimidine], which mortality at 400 ppm is on record?
**A.** 100%

**Q.** With Cc1oc2ncnc(NC(C)(C)Cc3ccccc3)c2c1C [Example 77, 5,6-dimethyl-N-[1,1-dimethyl-2-phenylethyl]furo[2,3-d]pyrimidin-4-amine] as the molecule, how does the mortality at 400 ppm read?
**A.** 90%

Each molecule was assayed on Botrytis cinerea (gray mold) (assay: Plant pathology screen (Test 1), gray mold on grape berries). Settings: read-out: GRAY MOLD control rating.

**Q.** For Cc1oc2ncnc(Sc3ccc(F)cc3)c2c1C [Example 56, 5,6-dimethyl-4-[(4-fluorophenyl)thio]furo[2,3-d]pyrimidine], which pest or weed control at 400 µg/mL is on record?
**A.** 0 to 19%

**Q.** Which pest or weed control at 400 µg/mL does the source give for Cc1oc2ncnc(OCC(C)c3ccc(CC(C)C)cc3)c2c1C (stereo not drawn) [Example 67, 4-[2-[4-(2,2-dimethylethyl)phenyl]-2-methylethoxy]5,6-dimethylfuro[2,3-d]pyrimidine] here?
**A.** 20 to 89%

**Q.** Which pest or weed control at 400 µg/mL does the source give for Cc1oc2ncnc(NC(C)(C)Cc3ccccc3)c2c1C [Example 77, 5,6-dimethyl-N-[1,1-dimethyl-2-phenylethyl]furo[2,3-d]pyrimidin-4-amine] here?
**A.** 0 to 19%
